Each structure is given as a SMILES string.

This assay concerns the target T1, ferroportin (Fpn) (Mus musculus, UniProt Q9JHI9).
T1 construct: endogenous in cells; host or cells: J774 mouse macrophage cell line, induced with Fe(III)NTA
T1 sequence (Q9JHI9 1-570): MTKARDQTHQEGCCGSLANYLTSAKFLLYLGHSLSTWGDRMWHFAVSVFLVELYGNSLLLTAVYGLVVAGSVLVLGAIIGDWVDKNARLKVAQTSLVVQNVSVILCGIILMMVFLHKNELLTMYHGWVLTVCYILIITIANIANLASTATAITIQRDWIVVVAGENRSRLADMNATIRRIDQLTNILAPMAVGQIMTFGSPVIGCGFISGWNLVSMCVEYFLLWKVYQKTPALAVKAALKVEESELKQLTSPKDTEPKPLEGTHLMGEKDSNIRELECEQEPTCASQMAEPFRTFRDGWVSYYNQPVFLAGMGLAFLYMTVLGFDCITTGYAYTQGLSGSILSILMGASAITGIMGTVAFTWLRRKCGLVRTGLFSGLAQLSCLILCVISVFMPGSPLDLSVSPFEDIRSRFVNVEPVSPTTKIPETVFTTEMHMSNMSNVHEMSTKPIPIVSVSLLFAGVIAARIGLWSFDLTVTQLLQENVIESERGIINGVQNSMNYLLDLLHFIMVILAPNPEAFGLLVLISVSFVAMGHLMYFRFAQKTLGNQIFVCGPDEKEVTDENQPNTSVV
As to the kind of experiment: Hepcidin Internalization Assay (J774). The following applies: Average (AVE) IC50 of multiple measurements; inhibition of TMR-hepcidin (25 nM) internalization into J774 cells. The class given is cell-based. From the text:
This cellular assay allows quantification of the binding of hepcidin to ferroportin (Fpn) through microscopic detection of internalization of a fluorescently labeled hepcidin into J774 cells. […] Binding of hepcidin to Fpn triggers internalization and degradation of both hepcidin and Fpn. […] Therefore, microscopic detection of cell-associated TMR fluorescence is a measure of hepcidin binding to Fpn and internalization of hepcidin and Fpn. If TMR-hepcidin is prevented from binding to Fpn, cellular TMR fluorescence remains low (Durrenberger et al, 2013). The effect of small molecular weight Fpn inhibitor compounds in this assay was evaluated in vitro as described below. […] After removal of the paraformaldehyde solution, cells were washed 3 times with PBS leaving 100 μl per well and the plates were sealed with foil plate seal. TMR (530-550 nm excitation/575-625 nm emission/400 ms exposure time) and Hoechst 33342 (360-370 nm excitation/420-460 nm emission /10 ms exposure time) fluorescence images were acquired using a […] imager (Olympus) with a 20× high NA objective. […] The acquired image data was analysed with the […] analysis software. […] IC50 values were calculated with the Sum(Mean) raw data using “log(inhibitor) vs. response” curve fitting of Prism 5 software (GraphPad Software Inc., version 5.02). For each data set the fit of the “log(inhibitor) vs. response (three parameters)” model was compared to the fit of the “log(inhibitor) vs. response - Variable slope (four parameters)” model and the IC50 data of the preferred model was used.
As to `COc1cccc(-n2c(CCNCCc3nc(C(=O)NCc4ncccc4F)co3)nc3cc(OC)c(OC)cc32)c1` [Example 72, 2-(2-((2-(5,6-dimethoxy-1-(3-methoxyphenyl)-1H-benzo[d]imidazol-2-yl)ethyl)amino)ethyl)-N-((3-fluoropyridin-2-yl)methyl)oxazole-4-carboxamide], the IC50 turned out to be 35 nM. The figure for `COCCn1c(CCNCCc2nc(C(=O)NCc3ncccc3OC)co2)nc2cc3c(cc21)OCO3` [Example 70, 2-(2-((2-(5-(2-methoxyethyl)-5H-[1,3]dioxolo[4′,5′:4,5]benzo[1,2-d]imidazol-6-yl)ethyl)amino)ethyl)-N-((3-methoxypyridin-2-yl)methyl)oxazole-4-carboxamide] is 3.9 nM; for `O=C(NCc1ncccc1F)c1coc(CCNCCc2nc3ccccc3n2Cc2ccccn2)n1` [Example 3, N-((3-fluoropyridin-2-yl)methyl)-2-(2-((2-(1-(pyridin-2-ylmethyl)-1H-benzo[d]imidazol-2-yl)ethyl)amino)ethyl)oxazole-4-carboxamide] it is 2 nM. The figure for `O=C(NCc1ncccc1F)c1coc(CCNCCc2nc3ccccc3n2CC2CC2)n1` [Example 50, 2-(2-((2-(1-(Cyclopropylmethyl)-1 H-benzo[d]imidazol-2-yl)ethyl)amino)ethyl)-N-((3-fluoropyridin-2-yl)methyl)oxazole-4-carboxamide] is 0.8 nM. Regarding `O=C(O)Cn1c(CCNCCc2nc(C(=O)NCc3ncccc3F)co2)nc2ccccc21` [Example 14, 2-(2-(2-((2-(4-(((3-fluoropyridin-2-yl)methyl)carbamoyl)oxazol-2-yl)ethyl)amino)ethyl)-1H-benzo[d]imidazol-1-yl)acetic acid], the IC50 was found to be 126 nM. Against the preceding compound, the IC50 is about 160-fold higher. In the case of `CCCCn1c(CCNCCc2nc(C(=O)NCc3ncccc3F)co2)nc2ccc(-c3ccccc3)cc21` [Example 41, 2-(2-((2-(1-butyl-6-phenyl-1 H-benzo[d]imidazol-2-yl)ethyl)amino)ethyl)-N-((3-fluoropyridin-2-yl)methyl)oxazole-4-carboxamide] it was 4 nM; in that of `O=C(NCc1ncccc1F)c1coc(CCNCCc2nc3ccccc3n2-c2ccccc2)n1` [Example 55, N-((3-fluoropyridin-2-yl)methyl)-2-(2-((2-(1-phenyl-1 H-benzo[d]imidazol-2-yl)ethyl)amino)ethyl)oxazole-4-carboxamide], 1.4 nM; in that of `O=C(NCc1ncccc1F)c1coc(CCNCCc2nc3cc4c(cc3n2CC(F)F)OCCO4)n1` [Example 71, 2-(2-((2-(1-(2,2-difluoroethyl)-6,7-dihydro-1 H-[1,4]dioxino[2′,3′:4,5]benzo[1,2-d]imidazol-2-yl)ethyl)amino)ethyl)-N-((3-fluoropyridin-2-yl)methyl)oxazole-4-carboxamide], 7 nM. In the case of `O=C(NCc1ncccc1F)c1coc(CCNCCc2nc3ccccc3n2CCc2nc3ccccc3[nH]2)n1` [Example 44, 2-(2-((2-(1-(2-(1H-benzo[d]imidazol-2-yl)ethyl)-1 H-benzo[d]imidazol-2-yl)ethyl)amino)ethyl)-N-((3-fluoropyridin-2-yl)methyl)oxazole-4-carboxamide] it was 1 nM; in that of `COCCOCCn1c(CCNCCc2nc(C(=O)NCc3ncccc3F)co2)nc2ccccc21` [Example 48, N-((3-fluoropyridin-2-yl)methyl)-2-(2-((2-(1-(2-(2-methoxyethoxy)ethyl)-1 H-benzo[d]imidazol-2-yl)ethyl)amino)ethyl)oxazole-4-carboxamide], 2 nM; in that of `NC(=O)Cn1c(CCNCCc2nc(C(=O)NCc3ncccc3F)co2)nc2ccccc21` [Example 16, 2-(2-((2-(1-(2-amino-2-oxoethyl)-1H-benzo[d]imidazol-2-yl)ethyl)amino)ethyl)-N-((3-fluoropyridin-2-yl)methyl)oxazole-4-carboxamide], 181 nM. The figure for `O=C(NCc1ncccc1F)c1coc(CCNCCc2nc3ccccc3n2CCc2ncco2)n1` [Example 31, N-((3-fluoropyridin-2-yl)methyl)-2-(2-((2-(1-(2-(oxazol-2-yl)ethyl)-1 H-benzo[d]imidazol-2-yl)ethyl)amino)ethyl)oxazole-4-carboxamide] is 2.8 nM; for `Cn1ccnc1CCn1c(CCNCCc2nc(C(=O)NCc3ncccc3F)co2)nc2ccccc21` [Example 34, N-((3-fluoropyridin-2-yl)methyl)-2-(2-((2-(1-(2-(1-methyl-1 H-imidazol-2-yl)ethyl)-1 H-benzo[d]imidazol-2-yl)ethyl)amino)ethyl)oxazole-4-carboxamide] it is 7.4 nM.

For `COCCn1c(CCNCCc2nc(C(=O)NCc3ncccc3F)co2)nc2cc3c(cc21)OCO3` [Example 69, N-((3-fluoropyridin-2-yl)methyl)-2-(2-((2-(5-(2-methoxyethyl)-5H-[1,3]dioxolo[4′,5′:4,5]benzo[1,2-d]imidazol-6-yl)ethyl)amino)ethyl)oxazole-4-carboxamide], the IC50 was found to be 3 nM. The compound `CNC(=O)Cn1c(CCNCCc2nc(C(=O)NCc3ncccc3F)co2)nc2ccccc21` [Example 15, N-((3-fluoropyridin-2-yl)methyl)-2-(2-((2-(1-(2-(methylamino)-2-oxoethyl)-1 H-benzo[d]imidazol-2-yl)ethyl)amino)ethyl)oxazole-4-carboxamide] yielded an IC50 of 32 nM. In the case of `CN(C)CCn1c(C2CN(CCc3nc(C(=O)NCc4ncccc4F)co3)C2)nc2ccccc21` [Example 97, 2-(2-(3-(1-(2-(dimethylamino)ethyl)-1H-benzo[d]imidazol-2-yl)azetidin-1-yl)ethyl)-N-((3-fluoropyridin-2-yl)methyl)oxazole-4-carboxamide] it was 89 nM. In turn, `CCCCn1c(CCNCCc2nc(C(=O)NCc3ncccc3C(F)(F)F)co2)nc2ccccc21` [Example 47, 2-(2-((2-(1-butyl-1 H-benzo[d]imidazol-2-yl)ethyl)amino)ethyl)-N-((3-(trifluoromethyl)pyridin-2-yl)methyl)oxazole-4-carboxamide] returned an IC50 of 8 nM.

In turn, `O=C(NCc1ncccc1F)c1coc(CCNCCc2nc3ccccc3n2Cc2ccc(Cl)cc2)n1` [Example 58, 2-(2-((2-(1-(4-chlorobenzyl)-1H-benzo[d]imidazol-2-yl)ethyl)amino)ethyl)-N-((3-fluoropyridin-2-yl)methyl)oxazole-4-carboxamide] showed an IC50 of 0.8 nM.

With `O=C(NCc1ncccc1F)c1coc(CCNCCc2nc3ccccc3n2CC2CCCCC2)n1` [Example 51, 2-(2-((2-(1-(cyclohexylmethyl)-1H-benzo[d]imidazol-2-yl)ethyl)amino)ethyl)-N-((3-fluoropyridin-2-yl)methyl)oxazole-4-carboxamide], the half-maximal inhibitory concentration (IC50) turned out to be 0.8 nM. `COCCn1c(C2CN(CCc3nc(C(=O)NCc4ncccc4F)co3)C2)nc2ccccc21` [Example 96, N-((3-fluoropyridin-2-yl)methyl)-2-(2-(3-(1-(2-methoxyethyl)-1H-benzo[d]imidazol-2-yl)azetidin-1-yl)ethyl)oxazole-4-carboxamide] gave an IC50 of 223 nM. This IC50 lies about 280-fold higher than the previous one. For `COc1cccc(-n2c(CCNCCc3nc(C(=O)NCc4ncccc4F)co3)nc3ccccc32)c1` [Example 63, N-((3-fluoropyridin-2-yl)methyl)-2-(2-((2-(1-(3-methoxyphenyl)-1H-benzo[d]imidazol-2-yl)ethyl)amino)ethyl)oxazole-4-carboxamide], the IC50 is 0.8 nM. This IC50 is about 280-fold lower than that of the compound before. As to `O=C(NCc1ncccc1F)c1coc(CCNCCc2nc3cc4c(cc3n2-c2ccccc2)OCO4)n1` [Example 82, N-((3-fluoropyridin-2-yl)methyl)-2-(2-((2-(5-phenyl-5H-[1,3]dioxolo[4′,5′:4,5]benzo[1,2-d]imidazol-6-yl)ethyl)amino)ethyl)oxazole-4-carboxamide], half-maximal inhibition (IC50) required 2 nM. The figure for `CN(C)CCn1c(CCNCCc2nc(C(=O)NCc3ncccc3F)co2)nc2cc3c(cc21)OCCO3` [Example 77, 2-(2-((2-(1-(2-(dimethylamino)ethyl)-6,7-dihydro-1 H-[1,4]dioxino[2′,3′:4,5]benzo[1,2-d]imidazol-2-yl)ethyl)amino)ethyl)-N-((3-fluoropyridin-2-yl)methyl)oxazole-4-carboxamide] is 5.1 nM.
